This note sets out measurements from publication PMC2925244 (Current biology : CB, 2010).

As a reminder, the IC50 is the midpoint of a concentration-inhibition curve.

Common to all, as to assay type: cell-based
Assay [1] concerns the target hTAS2R40 (Homo sapiens, UniProt P59535). In words: calcium imaging in transfected cells, […] GIV3727 against […] cohumulone. As to conditions: read-out: % activation in presence of GIV3727.
Assay [2] concerns the target T1, hTAS2R7 (Homo sapiens, UniProt Q9NYW3).
T1 sequence (Q9NYW3 1-318): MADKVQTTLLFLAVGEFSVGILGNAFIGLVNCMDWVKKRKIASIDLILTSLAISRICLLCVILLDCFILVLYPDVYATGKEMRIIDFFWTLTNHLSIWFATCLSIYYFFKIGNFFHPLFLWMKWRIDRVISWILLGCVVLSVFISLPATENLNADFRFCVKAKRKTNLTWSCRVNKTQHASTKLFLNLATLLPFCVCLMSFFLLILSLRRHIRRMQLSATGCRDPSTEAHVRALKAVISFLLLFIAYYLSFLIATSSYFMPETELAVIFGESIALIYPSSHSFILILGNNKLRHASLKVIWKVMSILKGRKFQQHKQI
In words: calcium imaging in transfected cells, […] GIV3727 against […] cromolyn. The conditions noted are these: read-out: % activation in presence of GIV3727.

The target in assay [3] is T2, hTAS2R31 (Homo sapiens, UniProt P59538).
T2 sequence (P59538 1-309): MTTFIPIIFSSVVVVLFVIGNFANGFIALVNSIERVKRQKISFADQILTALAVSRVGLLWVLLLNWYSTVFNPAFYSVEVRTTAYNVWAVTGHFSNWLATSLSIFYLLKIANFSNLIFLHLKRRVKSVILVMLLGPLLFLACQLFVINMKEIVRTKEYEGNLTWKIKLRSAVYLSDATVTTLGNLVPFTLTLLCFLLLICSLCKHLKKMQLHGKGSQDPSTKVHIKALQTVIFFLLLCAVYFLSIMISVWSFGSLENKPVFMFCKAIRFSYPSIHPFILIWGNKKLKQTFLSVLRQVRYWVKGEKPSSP
In words: FLIPR calcium imaging in HEK293 cells stably expressing hTAS2R31 and G16gust44.

Assay [4] addresses T3, hTAS2R4 (Homo sapiens, UniProt Q9NYW5).
T3 sequence (Q9NYW5 1-299): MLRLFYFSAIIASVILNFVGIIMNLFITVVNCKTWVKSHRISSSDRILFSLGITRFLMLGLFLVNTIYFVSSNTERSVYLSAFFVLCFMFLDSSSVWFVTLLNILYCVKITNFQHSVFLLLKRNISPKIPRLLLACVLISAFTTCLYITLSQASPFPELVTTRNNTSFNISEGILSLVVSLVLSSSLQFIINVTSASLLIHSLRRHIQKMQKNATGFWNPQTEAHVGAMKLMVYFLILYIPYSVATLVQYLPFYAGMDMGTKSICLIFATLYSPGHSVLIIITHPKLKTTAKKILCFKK
In words: calcium imaging in transfected cells, […] GIV3727 against […] colchicine. The conditions noted are these: read-out: % activation in presence of GIV3727.

For assay [5], the target named is T4, hTAS2R43 (Homo sapiens, UniProt P59537).
T4 sequence (P59537 1-309): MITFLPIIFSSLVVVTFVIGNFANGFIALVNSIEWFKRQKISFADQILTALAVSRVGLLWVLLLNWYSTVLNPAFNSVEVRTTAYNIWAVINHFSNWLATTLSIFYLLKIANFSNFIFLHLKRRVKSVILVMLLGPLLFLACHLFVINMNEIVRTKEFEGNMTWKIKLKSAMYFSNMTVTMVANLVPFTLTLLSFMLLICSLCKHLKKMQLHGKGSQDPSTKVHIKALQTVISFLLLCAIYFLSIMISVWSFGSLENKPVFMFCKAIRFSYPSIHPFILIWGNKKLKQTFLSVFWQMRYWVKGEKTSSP
In words: calcium imaging in transfected cells, […] GIV3727 against […] aristolochic acid. As to conditions: read-out: % activation in presence of GIV3727.

Assay [6] concerns the target T4, hTAS2R43. In words: calcium imaging in transfected cells, agonist at […].

Chain of hTAS2R40 (P59535 whole entry): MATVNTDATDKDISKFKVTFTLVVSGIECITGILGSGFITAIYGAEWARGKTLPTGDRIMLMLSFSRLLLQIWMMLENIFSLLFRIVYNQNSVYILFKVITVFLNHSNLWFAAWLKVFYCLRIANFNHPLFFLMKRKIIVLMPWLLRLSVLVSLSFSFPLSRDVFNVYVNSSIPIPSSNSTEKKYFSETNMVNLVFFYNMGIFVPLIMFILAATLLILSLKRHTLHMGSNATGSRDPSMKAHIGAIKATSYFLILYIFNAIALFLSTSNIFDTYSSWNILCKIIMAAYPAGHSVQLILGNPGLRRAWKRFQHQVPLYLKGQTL

In the case of `CC1CCC(CCCC(=O)O)C1(C)C` (stereo not drawn) [GIV3727, 4-(2,2,3-trimethylcyclopentyl)butanoic acid], the activity at 25 µM in assay [1] was determined as 3.2 ± 6.5%; in assay [2], 47.8 ± 17%; in assay [4] it was 45.8 ± 17.4%; in assay [5] it was 2.5 ± 4.9%. In addition, in assay [3], the IC50 was found to be 6.4 ± 2.4 µM.
`COc1cccc2c1cc([N+](=O)[O-])c1c(C(=O)O)cc3c(c12)OCO3` [aristolochic acid]: in assay [6], the “calcium imaging in transfected cells, agonist at 0.3 μM” value is “confers sensitivity to aristolochic acid, which activates hTAS2R43 but is inactive in the native hTAS2R46 (Figure S4)”.
